Source: BigSolDB 2.1

Conditions: in water

NCCS(=O)(=O)O
Conditions | solubility (mole fraction)
278.15 K | 0.00667
283.15 K | 0.00809
288.15 K | 0.0101
293.15 K | 0.0121
298.15 K | 0.0141
303.15 K | 0.0172
308.15 K | 0.0202
313.15 K | 0.0232
318.15 K | 0.0264
323.15 K | 0.0318
